Here are results for 15 compounds from ChEMBL document CHEMBL5346924, “Optically activated MEK1/2 inhibitors (Opti-MEKi) as potential antimelanoma agents” (Eur J Med Chem, 2023).

Data set [1] can be described thus: Cytotoxicity against HEK293T cells assessed as cell growth inhibition preincubated with compound for 1 hrs followed by 365 nm light irradiation for 5 mins and measured 72 hrs post compound treatment by CellTiter-Glo luminescent assay. In kind it is toxicity, cell-based, HEK-293T. As to conditions: human.
Data set [2] concerns A-375. Description: Antiproliferative activity against human A-375 cells harboring BRAF V600E mutant assessed as cell growth inhibition incubated for 72 hrs in the absence of UV irradiation by CellTiter-Glo luminescent assay. In kind it is functional. As to conditions: A-375, light or radiation study. (In ATP-based viability assays light output follows the ATP content of the culture.)

For data set [3], the system named is A-375. Description: Antiproliferative activity against human A-375 cells harboring BRAF V600E mutant assessed as cell growth inhibition preincubated with compound for 1 hrs followed by 365 nm light irradiation for 5 mins and measured 72 hrs post compound treatment by CellTiter-Glo luminescent assay. It counts as functional. Conditions: A-375, light or radiation study.

The subject of data set [4] is A-375. The experiment in a line: Antiproliferative activity against human A-375 cells harboring BRAF V600E mutant assessed as cell growth inhibition preincubated with compound for 1 hrs followed by UV irradiation for 3 mins and measured 72 hrs post compound treatment by CellTiter-Glo luminescent assay. As to conditions: A-375, light or radiation study. In kind it is functional.

Data set [5] has as its system A-375. Description: Antiproliferative activity against human A-375 cells harboring BRAF V600E mutant assessed as cell growth inhibition preincubated with compound for 1 hrs followed by UV irradiation for 1 min and measured 72 hrs post compound treatment by CellTiter-Glo luminescent assay. It counts as functional. Conditions: A-375, light or radiation study.
In data set [6] the test system is A-375. Description: Antiproliferative activity against human A-375 cells harboring BRAF V600E mutant assessed as cell growth inhibition preincubated with compound for 1 hrs followed by UV irradiation for 5 mins and measured 72 hrs post compound treatment by CellTiter-Glo luminescent assay. It counts as functional. As to conditions: A-375, light or radiation study.

Data set [7] can be described thus: Stability of the compound in PBS-DMSO solution assessed as drug degradation measured after 12 hrs in the absence of light irradiation. It counts as physicochemical. As to conditions: read-out: Drug degradation.
A short description of data set [8]: Photoactivation of the compound assessed as photocleavage by measuring decay half-life in the presence of 365 nm UV irradiation by HPLC based LC-MS analysis.
Data set [9] relates to A549. Description: Antiproliferative activity against human A549 cells harboring KRAS […] mutant assessed as cell growth inhibition incubated for 72 hrs in the absence of UV irradiation by CellTiter-Glo luminescent assay. Conditions: A549, light or radiation study. In kind it is functional.
A short description of data set [10]: Photoactivation of the compound assessed as photocleavage in the presence of 365 nm UV irradiation by HPLC based LC-MS analysis.
The nature of data set [11]: Cytotoxicity against HEK293T cells assessed as cell growth inhibition incubated for 72 hrs by CellTiter-Glo luminescent assay. It counts as toxicity, cell-based, HEK-293T. As to conditions: human.
For data set [12], the system named is A549. The experiment in a line: Antiproliferative activity against human A549 cells harboring KRas […] mutant assessed as cell growth inhibition preincubated with compound for 1 hrs followed by UV irradiation for 5 mins and measured 72 hrs post compound treatment by CellTiter-Glo luminescent assay. It counts as functional. Conditions: A549, light or radiation study.

Data set [13] deals with HCT-116. Description: Antiproliferative activity against human HCT-116 cells harboring KRAS G13D mutant assessed as cell growth inhibition preincubated with compound for 1 hrs followed by UV irradiation for 5 mins and measured 72 hrs post compound treatment by CellTiter-Glo luminescent assay. It counts as functional. Conditions: HCT-116, light or radiation study.
Data set [14] concerns HCT-116. Description: Antiproliferative activity against human HCT-116 cells harboring KRAS G13D mutant assessed as cell growth inhibition incubated for 72 hrs in the absence of UV irradiation by CellTiter-Glo luminescent assay. Conditions: HCT-116, light or radiation study. It counts as functional.
Data set [15] is described as follows: Photoactivation of the compound assessed as fold change in caging efficiency.
Data set [16] in a line: Photoactivation of the compound assessed as photocleavage by measuring mirdametinib recovery in the presence of 365 nm UV irradiation by HPLC based LC-MS analysis.
Data set [17] deals with Dual specificity mitogen-activated protein kinase kinase 1 (Homo sapiens, UniProt Q02750). Description: Inhibition of MEK1 (unknown origin) incubated for 1 hrs in the presence of ATP by FRET-based Z'-Lyte assay.
In data set [18] the target is Mitogen-activated protein kinase; ERK1/ERK2 (Homo sapiens, UniProt P27361+P28482). Description: Inhibition of ERK1/2 phosphorylation in human A-375 cells incubated for 1 hrs in the absence of UV irradiation by Western blot analysis. In kind it is cell-based.
The test system of data set [19] is A-375. Description: Inhibition of colony formation in human A-375 cells at 10 to 300 nM incubated for 10 days by crystal violet staining based analysis. It counts as functional, cell-based. Conditions: dose 10-300 nM, time 10.0 day.
The nature of data set [20]: Stability in human blood plasma assessed as half-life. In kind it is ADME, cell-free.
A short description of data set [21]: Stability of the compound under 365 nm UV irradiation measured after 10 mins. It counts as physicochemical.

Activity calls are given as the source filed them. No cut-off for these calls is given here. Bounds are passed on as bounds.

Chain of Dual specificity mitogen-activated protein kinase kinase 1 (Q02750 whole entry): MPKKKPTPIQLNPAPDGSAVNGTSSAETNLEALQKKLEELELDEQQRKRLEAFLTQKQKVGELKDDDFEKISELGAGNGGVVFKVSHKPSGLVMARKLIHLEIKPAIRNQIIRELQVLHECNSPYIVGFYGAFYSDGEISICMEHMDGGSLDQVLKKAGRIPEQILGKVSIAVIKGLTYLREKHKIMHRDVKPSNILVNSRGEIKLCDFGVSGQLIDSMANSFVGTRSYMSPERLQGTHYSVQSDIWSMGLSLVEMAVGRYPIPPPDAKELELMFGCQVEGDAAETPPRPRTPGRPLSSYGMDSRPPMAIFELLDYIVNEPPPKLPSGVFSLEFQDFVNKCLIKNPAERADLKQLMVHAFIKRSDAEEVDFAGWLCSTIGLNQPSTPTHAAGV

As a reminder, the GI50 is the concentration that inhibits growth by half. On to `COc1cc(COC(=O)[C@H](C)NC(=O)OC(C)(C)C)c([N+](=O)[O-])cc1OC`, for which the GI50 at 72 h in data set [1] was > 100000 nM. For the same compound, the results for the GI50 in data set [2] and in data set [3] were > 100000 nM and > 100 nM, respectively.
Consider `C[C@H](NC(=O)OC(C)(C)C)C(=O)O`, for which the GI50 at 72 h in data set [1] is > 100000 nM. Moreover, the GI50 is > 100000 nM in data set [2] and > 100 nM in data set [3].
Regarding `C[C@H](NC(=O)OC(C)(C)C)C(=O)OCc1cc2c(cc1[N+](=O)[O-])OCO2`, in data set [1], the GI50 at 72 h is > 100000 nM. In addition, the GI50 in data set [2] is > 100000 nM; in [3], > 100 nM.
For `COc1cc(C(C)OC(=O)[C@H](C)NC(=O)OC(C)(C)C)c([N+](=O)[O-])cc1OC` (some centres undefined), the GI50 at 72 h in data set [1] is > 100000 nM. Moreover, the concentration for 50% growth inhibition (GI50) in data set [2] is > 100000 nM; in data set [3], > 100 nM.
As for `COc1ccc(CN(c2ccc(I)cc2F)c2c(C(=O)NOC[C@H](O)CO)ccc(F)c2F)cc1OC`, in [2], the GI50 turned out to be 1520 nM.
The term half-life denotes the time in which the quantity being followed falls by half. Turning to `COc1cc(CN(c2ccc(I)cc2F)c2c(C(=O)NOC[C@H](O)CO)ccc(F)c2F)c([N+](=O)[O-])cc1OC`, the GI50 in [4] is 3.76 nM; in [2], 18.1 nM; in [5], 9.95 nM; in [6], 5.59 nM. In [7], the degraded at 12 h is > 30%. Moreover, in data set [8], the half-life was determined as 0.19 min.
As for `CC(O/C(=N\OC[C@H](O)CO)c1ccc(F)c(F)c1Nc1ccc(I)cc1F)c1cc2c(cc1[N+](=O)[O-])OCO2` (some centres undefined), the GI50 was > 10000 nM in data set [9]; 9.7 nM in data set [4]; 3610 nM in data set [2]; 28.6 nM in [5]; 478 nM in [12]; 169 nM in [13]. In addition, the values for the GI50 in data set [6] and in data set [14] were 7.17 nM and > 10000 nM, respectively. The Drug metabolism result in [10] is recorded as “Metabolite_Detected”. Moreover, in [11], the GI50 at 72 h was > 10000 nM. In [8], the half-life turned out to be 1.26 min.
In the case of `COc1cc(CO/C(=N\OC[C@H](O)CO)c2ccc(F)c(F)c2Nc2ccc(I)cc2F)c([N+](=O)[O-])cc1OC`, the GI50 in data set [9] was > 10000 nM; in data set [4], 82.8 nM; in [2] it was 1170 nM; in [5] it was 272 nM; in data set [12], 1890 nM; in data set [13], 1050 nM. For the same compound, the values for the GI50 in data set [6] and in [14] were 82.2 nM and 1920 nM, respectively. The GI50 at 72 h in [11] was > 10000 nM. The half-life in data set [8] turned out to be 1.71 min.
Broadly, the IC50 is the concentration that gives 50% inhibition. With `CCN(CC)c1ccc2c(CO/C(=N\OC[C@H](O)CO)c3ccc(F)c(F)c3Nc3ccc(I)cc3F)cc(=O)oc2c1`, the “fold change (FC)” value in data set [15] was > 5085. Moreover, the GI50 in data set [9] is > 10000 nM; in data set [4] it was 123 nM; in data set [2] it was 9800 nM; in [5], 222 nM; in [12] it was 270 nM; in data set [13], 1750 nM. The GI50 was 108 nM in data set [6] and 1500 nM in [14]. Besides, the GI50 at 72 h in data set [11] was > 10000 nM. In data set [16], the Drug recovery is given as < 10%. Besides, the IC50 in data set [17] was > 30000 nM. In addition, in data set [8], the half-life was 0.2 min.
Take `O=C(NOCCO)c1ccc(F)c(F)c1Nc1ccc(I)cc1F`: in data set [2], the GI50 was found to be 3.36 nM.
In the case of `CCN(CC)c1ccc2c(COC(=O)[C@H](C)NC(=O)OC(C)(C)C)cc(=O)oc2c1`, in data set [1], the GI50 at 72 h was > 100000 nM. Moreover, the GI50 in data set [2] is > 100000 nM; in [3], 15.8 nM.
Take `CC(OC(=O)[C@H](C)NC(=O)OC(C)(C)C)c1cc2c(cc1[N+](=O)[O-])OCO2` (some centres undefined): the GI50 at 72 h in data set [1] was > 100000 nM. In addition, the GI50 in data set [2] was > 100000 nM; in [3], > 100 nM.
Consider `O=C(NOC[C@H](O)CO)c1ccc(F)c(F)c1Nc1ccc(I)cc1F` [MIRDAMETINIB], for which the GI50 in data set [9] is 4.94 nM; in data set [4] it was 1.59 nM; in data set [2], 1.28 nM; in data set [5], 1.37 nM; in [12] it was 10.6 nM; in data set [13] it was 52.5 nM. Further, the GI50 was 1.49 nM in data set [6] and 44.7 nM in data set [14]. For the same compound, the EC50 in [18] is ~ 1.2 nM. The 50% growth inhibitory concentration (GI50) at 72 h in [11] was > 10000 nM. For the same compound, in data set [19], the inhibition entry is “Active”. The half-life in data set [20] was > 289 min. Moreover, the Stability result in data set [21] is “Stable”.
For the compound `COc1cc(COCCONC(=O)c2ccc(F)c(F)c2Nc2ccc(I)cc2F)c([N+](=O)[O-])cc1OC`, the GI50 in data set [4] was determined as 16 nM; in [2] it was 7130 nM; in data set [5] it was 43.4 nM; in data set [6] it was 9.4 nM. Besides, the half-life in data set [8] came to 0.52 min.
In the case of `O=[N+]([O-])c1cc2c(cc1CO/C(=N\OC[C@H](O)CO)c1ccc(F)c(F)c1Nc1ccc(I)cc1F)OCO2`, the GI50 in data set [9] was > 10000 nM; in [4], 36.7 nM; in [2] it was 605 nM; in data set [5] it was 128 nM; in data set [12], 896 nM; in data set [13], 236 nM. For the same compound, the GI50 in data set [6] was 40.3 nM; in data set [14], > 10000 nM. The Drug metabolism result in data set [10] is given as “Metabolite_Detected”. Further, in data set [11], the GI50 at 72 h is > 10000 nM. Further, the half-life in data set [8] turned out to be 1.68 min.
